# Laboratory results taken from paper PMC5218480 (PLoS ONE, 2017).
# Tested on: MV-4-11 cells
# Assay: Gene expression microarray analysis (Affymetrix PrimeView) and GSEA
# Type: cell-based, human
# Set-up: RFU PODN (11730768_x_at) / Fold change /veh PODN (11730768_x_at) / RFU LINC00158 (11744669_a_at) / Fold change /veh LINC00158 (11744669_a_at) / RFU DUSP10 (11751237_a_at) / Fold change /veh DUSP10 (11751237_a_at) / RFU ID3 (11757404_x_at) / Fold change /veh ID3 (11757404_x_at) / RFU PLEKHG5 (11737974_s_at) / Fold change /veh PLEKHG5 (11737974_s_at) / RFU LRRC4B (11730491_at) / Fold change /veh LRRC4B (11730491_at) / RFU GIMAP4 (11747438_a_at) / Fold change /veh GIMAP4 (11747438_a_at) / RFU KRT8 (11758183_x_at) / Fold change /veh KRT8 (11758183_x_at) / RFU CNN1 (11734310_a_at) / Fold change /veh CNN1 (11734310_a_at) / RFU VPS37D (11726825_at) / Fold change /veh VPS37D (11726825_at) / RFU C10orf10 (11716522_x_at) / Fold change /veh C10orf10 (11716522_x_at) / RFU KIR2DL2 /// KIR2DL4 /// KIR2DL5A /// KIR2DL5B /// KIR2DS1 /// KIR2DS2 /// KIR2DS3 /// KIR2DS4 /// KIR3DL3 /// KIR3DL3 /// KIR3DS1 (11738374_at) / Fold change /veh KIR2DL2 /// KIR2DL4 /// KIR2DL5A /// KIR2DL5B /// KIR2DS1 /// KIR2DS2 /// KIR2DS3 /// KIR2DS4 /// KIR3DL3 /// KIR3DL3 /// KIR3DS1 (11738374_at) / RFU C1QL1 (11718748_at) / Fold change /veh C1QL1 (11718748_at) / RFU TMPRSS4 (11747572_a_at) / Fold change /veh TMPRSS4 (11747572_a_at) / RFU HAMP (11756126_x_at) / Fold change /veh HAMP (11756126_x_at) / RFU RNFT2 (11725882_a_at) / Fold change /veh RNFT2 (11725882_a_at) / RFU NR4A2 (11747474_a_at) / Fold change /veh NR4A2 (11747474_a_at) / RFU ABCC12 (11746883_a_at) / Fold change /veh ABCC12 (11746883_a_at) / RFU TMEM136 (11760407_x_at) / Fold change /veh TMEM136 (11760407_x_at) / RFU CLDN22 /// WWC2 (11732394_at) / Fold change /veh CLDN22 /// WWC2 (11732394_at) / RFU HLA-DPB1 (11760878_x_at) / Fold change /veh HLA-DPB1 (11760878_x_at) / RFU SPINT1 (11716480_a_at) / Fold change /veh SPINT1 (11716480_a_at) / RFU GAP43 (11754022_s_at) / Fold change /veh GAP43 (11754022_s_at) / RFU A4GNT (11735810_at) / Fold change /veh A4GNT (11735810_at) / RFU PRB3 (11715151_x_at) / Fold change /veh PRB3 (11715151_x_at) / RFU TUBB4B (11761932_at) / Fold change /veh TUBB4B (11761932_at) / RFU CAPN14 (11732068_a_at) / Fold change /veh CAPN14 (11732068_a_at) / RFU TMCC2 (11721928_a_at) / Fold change /veh TMCC2 (11721928_a_at) / RFU IRGQ (11745062_a_at) / Fold change /veh IRGQ (11745062_a_at) / RFU FAM174B (11720279_a_at) / Fold change /veh FAM174B (11720279_a_at) / RFU TMPRSS4 (11748680_a_at) / Fold change /veh TMPRSS4 (11748680_a_at) / RFU FAM212B (11763350_a_at) / Fold change /veh FAM212B (11763350_a_at) / RFU PLEKHG5 (11743358_a_at) / Fold change /veh PLEKHG5 (11743358_a_at) / RFU ZSCAN30 (11745921_a_at) / Fold change /veh ZSCAN30 (11745921_a_at) / RFU CMKLR1 (11741424_a_at) / Fold change /veh CMKLR1 (11741424_a_at) / RFU LOC101060620 /// MAPK8IP1 (11723275_at) / Fold change /veh LOC101060620 /// MAPK8IP1 (11723275_at) / RFU SPTSSB (11747773_x_at) / Fold change /veh SPTSSB (11747773_x_at) / RFU PRSS12 (11739890_at) / Fold change /veh PRSS12 (11739890_at) / RFU BIN1 (11741810_x_at) / Fold change /veh BIN1 (11741810_x_at) / RFU WNT11 (11732464_a_at) / Fold change /veh WNT11 (11732464_a_at) / RFU C10orf10 (11716521_a_at) / Fold change /veh C10orf10 (11716521_a_at) / RFU C5orf56 (11738089_at) / Fold change /veh C5orf56 (11738089_at) / RFU CYB561 (11721691_x_at) / Fold change /veh CYB561 (11721691_x_at) / RFU ANKRD19P (11752326_a_at) / Fold change /veh ANKRD19P (11752326_a_at) / RFU OR2T12 /// OR2T33 /// OR2T8 (11738714_s_at) / Fold change /veh OR2T12 /// OR2T33 /// OR2T8 (11738714_s_at) / RFU VCAN (11748164_a_at) / Fold change /veh VCAN (11748164_a_at) / RFU JSRP1 (11732532_at) / Fold change /veh JSRP1 (11732532_at) / RFU KRTAP10-11 (11738290_x_at) / Fold change /veh KRTAP10-11 (11738290_x_at) / RFU MYO3A (11730013_a_at) / Fold change /veh MYO3A (11730013_a_at) / RFU EBF3 (11725865_a_at) / Fold change /veh EBF3 (11725865_a_at) / RFU CAMK2N1 (11719241_x_at) / Fold change /veh CAMK2N1 (11719241_x_at) / RFU C5orf56 (11738088_a_at) / Fold change /veh C5orf56 (11738088_a_at) / RFU OLFML3 (11715873_a_at) / Fold change /veh OLFML3 (11715873_a_at) / RFU LOC100653217 /// NTM (11731650_a_at) / Fold change /veh LOC100653217 /// NTM (11731650_a_at) / RFU MAPK11 (11762145_a_at) / Fold change /veh MAPK11 (11762145_a_at) / RFU FIZ1 (11724087_x_at) / Fold change /veh FIZ1 (11724087_x_at) / RFU OASL (11726364_x_at) / Fold change /veh OASL (11726364_x_at) / RFU SOX15 (11748057_x_at) / Fold change /veh SOX15 (11748057_x_at) / RFU CD79A (11719716_a_at) / Fold change /veh CD79A (11719716_a_at) / RFU HIST1H1D (11736915_at) / Fold change /veh HIST1H1D (11736915_at) / RFU CASKIN2 (11723855_a_at) / Fold change /veh CASKIN2 (11723855_a_at) / RFU LOC730098 (11760151_x_at) / Fold change /veh LOC730098 (11760151_x_at) / RFU OR4N2 (11742367_at) / Fold change /veh OR4N2 (11742367_at) / RFU PRRT2 (11749266_a_at) / Fold change /veh PRRT2 (11749266_a_at) / RFU SNX32 (11753110_a_at) / Fold change /veh SNX32 (11753110_a_at) / RFU CDHR5 (11726645_a_at) / Fold change /veh CDHR5 (11726645_a_at) / RFU RCAN1 (11760418_a_at) / Fold change /veh RCAN1 (11760418_a_at) / RFU FAM167A (11723789_a_at) / Fold change /veh FAM167A (11723789_a_at) / RFU FAM26E (11764081_at) / Fold change /veh FAM26E (11764081_at) / RFU ISYNA1 (11749810_s_at) / Fold change /veh ISYNA1 (11749810_s_at) / RFU ACY1 (11761880_at) / Fold change /veh ACY1 (11761880_at) / RFU 11764098_at / Fold change /veh 11764098_at / RFU SAMD14 (11745864_x_at) / Fold change /veh SAMD14 (11745864_x_at) / RFU NPB (11741838_a_at) / Fold change /veh NPB (11741838_a_at) / RFU TMPRSS6 (11731388_a_at) / Fold change /veh TMPRSS6 (11731388_a_at) / RFU KRTAP10-2 (11738614_at) / Fold change /veh KRTAP10-2 (11738614_at) / RFU ARHGAP8 /// PRR5-ARHGAP8 (11727945_x_at) / Fold change /veh ARHGAP8 /// PRR5-ARHGAP8 (11727945_x_at) / RFU KRTAP5-7 /// NADSYN1 (11734609_at) / Fold change /veh KRTAP5-7 /// NADSYN1 (11734609_at) / RFU RASL12 (11751679_a_at) / Fold change /veh RASL12 (11751679_a_at) / RFU CDKN2B (11736163_a_at) / Fold change /veh CDKN2B (11736163_a_at) / RFU PRF1 (11729649_at) / Fold change /veh PRF1 (11729649_at) / RFU, ZNF638 /// ZNF638-IT1 / Fold change vs veh, ZNF638 /// ZNF638-IT1 / RFU, PANK3 / Fold change vs veh, PANK3 / RFU, SH3YL1 / Fold change vs veh, SH3YL1 / RFU, ZEB2 / Fold change vs veh, ZEB2 / RFU, NRIP1 / Fold change vs veh, NRIP1 / RFU, PTTG1IP / Fold change vs veh, PTTG1IP / RFU, CAPN2 / Fold change vs veh, CAPN2 / RFU, MED14 / Fold change vs veh, MED14 / RFU, SNORA58 / Fold change vs veh, SNORA58 / RFU, C1orf63 / Fold change vs veh, C1orf63 / RFU, LRRFIP1 / Fold change vs veh, LRRFIP1 / RFU, NDUFAF7 / Fold change vs veh, NDUFAF7 / RFU, SLC12A2 / Fold change vs veh, SLC12A2 / RFU, IBTK / Fold change vs veh, IBTK / RFU, ESF1 / Fold change vs veh, ESF1 / Fold change vs veh, TMEM50B / RFU, TAOK1 / Fold change vs veh, TAOK1 / RFU, ACBD3 / Fold change vs veh, ACBD3 / RFU, TMA16 / Fold change vs veh, TMA16 / RFU, RWDD3 / Fold change vs veh, RWDD3 / RFU, BCAT1 / Fold change vs veh, BCAT1 / RFU, EDEM3 / Fold change vs veh, EDEM3 / RFU, TMEM33 / Fold change vs veh, TMEM33 / RFU, WDR75 / Fold change vs veh, WDR75 / RFU, AHCTF1 / Fold change vs veh, AHCTF1 / RFU, TFRC / Fold change vs veh, TFRC / RFU, ZDHHC17 / Fold change vs veh, ZDHHC17 / RFU, NOM1 / Fold change vs veh, NOM1 / RFU, ARL8B / Fold change vs veh, ARL8B / RFU, ZBTB11 / Fold change vs veh, ZBTB11 / RFU, TAMM41 / Fold change vs veh, TAMM41 / RFU, KIAA1704 /// LOC100996395 / Fold change vs veh, KIAA1704 /// LOC100996395 / RFU, ING1 / Fold change vs veh, ING1 / RFU, TRMT61B / Fold change vs veh, TRMT61B / RFU, FUBP3 / Fold change vs veh, FUBP3 / RFU, TP53 / Fold change vs veh, TP53 / RFU, TNKS2 / Fold change vs veh, TNKS2 / RFU, ZFP14 / Fold change vs veh, ZFP14 / RFU, ACTR2 / Fold change vs veh, ACTR2 / RFU, PPP3R1 / Fold change vs veh, PPP3R1 / RFU, PIK3R1 / Fold change vs veh, PIK3R1 / RFU, HNRNPA1 / Fold change vs veh, HNRNPA1 / RFU, RNF170 / Fold change vs veh, RNF170 / RFU, ZNF28 / Fold change vs veh, ZNF28 / RFU, RNGTT / Fold change vs veh, RNGTT / RFU, OGT / Fold change vs veh, OGT / RFU, BRD1 / Fold change vs veh, BRD1 / RFU, MARS / Fold change vs veh, MARS / RFU, ZNF655 / Fold change vs veh, ZNF655 / RFU, FAHD1 / Fold change vs veh, FAHD1 / RFU, BDP1 / Fold change vs veh, BDP1 / RFU, LRRCC1 / Fold change vs veh, LRRCC1 / RFU, ARID1A / Fold change vs veh, ARID1A / RFU, ZNF146 / Fold change vs veh, ZNF146 / RFU, ZNF330 / Fold change vs veh, ZNF330 / RFU, GPN3 / Fold change vs veh, GPN3 / RFU, C9orf123 / Fold change vs veh, C9orf123 / RFU, N4BP2L2 / Fold change vs veh, N4BP2L2 / RFU, ARFIP1 / Fold change vs veh, ARFIP1 / RFU, FAM179B / Fold change vs veh, FAM179B / RFU, BCL10 / Fold change vs veh, BCL10 / RFU, UHRF1BP1L / Fold change vs veh, UHRF1BP1L / RFU, BET1 / Fold change vs veh, BET1 / RFU, CNOT2 / Fold change vs veh, CNOT2 / RFU, ZNF268 / Fold change vs veh, ZNF268 / Fold change vs veh, ZNF507 / RFU, DGCR2 / Fold change vs veh, DGCR2 / RFU, WDSUB1 / Fold change vs veh, WDSUB1 / Fold change vs veh, HSP90B1 /// MIR3652 / RFU, ADSS / Fold change vs veh, ADSS / RFU, GK / Fold change vs veh, GK / RFU, ZNF148 / Fold change vs veh, ZNF148 / RFU, TAF9 / Fold change vs veh, TAF9 / RFU, SLC1A5 / Fold change vs veh, SLC1A5 / RFU, SLMO2 / Fold change vs veh, SLMO2 / RFU, ABCC4 / Fold change vs veh, ABCC4 / RFU, LOC101060439 /// RAP1B / Fold change vs veh, LOC101060439 /// RAP1B / RFU, RFX7 / Fold change vs veh, RFX7 / RFU, GTPBP10 / Fold change vs veh, GTPBP10 / RFU, CNEP1R1 / Fold change vs veh, CNEP1R1 / RFU, BIVM-ERCC5 /// ERCC5 / Fold change vs veh, BIVM-ERCC5 /// ERCC5 / RFU, ILF3 / Fold change vs veh, ILF3 / RFU 11762660_at / Fold change /veh 11762660_at / RFU VCAN (11757783_s_at) / Fold change /veh VCAN (11757783_s_at) / RFU DDX43 (11728927_at) / Fold change /veh DDX43 (11728927_at) / RFU KRT8 (11758188_x_at) / Fold change /veh KRT8 (11758188_x_at) / RFU NKD1 (11759106_at) / Fold change /veh NKD1 (11759106_at) / RFU SRD5A1 (11742802_a_at) / Fold change /veh SRD5A1 (11742802_a_at) / RFU TPSAB1 /// TPSB2 (11721975_s_at) / Fold change /veh TPSAB1 /// TPSB2 (11721975_s_at) / RFU GSTM3 (11746129_a_at) / Fold change /veh GSTM3 (11746129_a_at) / RFU IL23R (11737362_x_at) / Fold change /veh IL23R (11737362_x_at) / RFU TMEM51 (11727254_a_at) / Fold change /veh TMEM51 (11727254_a_at) / RFU PIWIL2 (11732686_x_at) / Fold change /veh PIWIL2 (11732686_x_at) / RFU ORM1 (11744905_x_at) / Fold change /veh ORM1 (11744905_x_at) / RFU CCDC152 (11743942_at) / Fold change /veh CCDC152 (11743942_at) / RFU ECM1 (11717891_a_at) / Fold change /veh ECM1 (11717891_a_at) / RFU IL23R (11748794_a_at) / Fold change /veh IL23R (11748794_a_at) / RFU TNFAIP8L3 (11732012_x_at) / Fold change /veh TNFAIP8L3 (11732012_x_at) / RFU MBOAT4 (11741988_at) / Fold change /veh MBOAT4 (11741988_at) / RFU 11764193_at / Fold change /veh 11764193_at / RFU TMEM53 (11763286_at) / Fold change /veh TMEM53 (11763286_at) / RFU MAGEB2 (11727129_at) / Fold change /veh MAGEB2 (11727129_at) / RFU TMEM200A (11744735_a_at) / Fold change /veh TMEM200A (11744735_a_at) / RFU CCDC152 (11751479_a_at) / Fold change /veh CCDC152 (11751479_a_at) / RFU FAM211A (11726209_a_at) / Fold change /veh FAM211A (11726209_a_at) / RFU RGS16 (11746705_a_at) / Fold change /veh RGS16 (11746705_a_at) / RFU VCAN (11755009_s_at) / Fold change /veh VCAN (11755009_s_at) / RFU RHOB (11743442_s_at) / Fold change /veh RHOB (11743442_s_at) / RFU RGS16 (11720943_a_at) / Fold change /veh RGS16 (11720943_a_at) / RFU RGS16 (11720944_at) / Fold change /veh RGS16 (11720944_at) / RFU, VPS4B / Fold change vs veh, VPS4B / RFU, CREB1 / Fold change vs veh, CREB1 / RFU, DNAJC13 / Fold change vs veh, DNAJC13 / RFU, GNAQ / Fold change vs veh, GNAQ / RFU, CDK5R1 / Fold change vs veh, CDK5R1 / RFU, ZRANB3 / Fold change vs veh, ZRANB3 / RFU, CUL4A / Fold change vs veh, CUL4A / RFU, CCNY / Fold change vs veh, CCNY / RFU, UFL1 / Fold change vs veh, UFL1 / RFU, COG3 / Fold change vs veh, COG3 / RFU, DIAPH2 / Fold change vs veh, DIAPH2 / RFU, SKA2 / Fold change vs veh, SKA2 / RFU, AFF3 / Fold change vs veh, AFF3 / RFU, LMF1 / Fold change vs veh, LMF1 / RFU, IPO11 / Fold change vs veh, IPO11 / RFU, DFFB / Fold change vs veh, DFFB / RFU, FOXP1 / Fold change vs veh, FOXP1 / RFU, CARD8 / Fold change vs veh, CARD8 / RFU, STRN3 / Fold change vs veh, STRN3 / RFU, ADK / Fold change vs veh, ADK / RFU, RASSF2 / Fold change vs veh, RASSF2 / RFU, WIPF1 / Fold change vs veh, WIPF1 / RFU, LARP1B / Fold change vs veh, LARP1B / RFU, RASA1 / Fold change vs veh, RASA1 / RFU, RB1 / Fold change vs veh, RB1 / RFU, PPFIA1 / Fold change vs veh, PPFIA1 / RFU, MAT2A / Fold change vs veh, MAT2A / RFU, CCT5 / Fold change vs veh, CCT5 / RFU, WDR92 / Fold change vs veh, WDR92 / RFU, CUX1 / Fold change vs veh, CUX1 / RFU, TTC7A / Fold change vs veh, TTC7A / RFU, TMEM135 / Fold change vs veh, TMEM135 / RFU, DEPTOR / Fold change vs veh, DEPTOR / RFU, CPM / Fold change vs veh, CPM / RFU, DNAJB6 / Fold change vs veh, DNAJB6 / RFU, CACNA2D3 / Fold change vs veh, CACNA2D3 / RFU, DTX4 / Fold change vs veh, DTX4 / RFU, TFCP2 / Fold change vs veh, TFCP2 / RFU, GMCL1 /// GMCL1P1 / Fold change vs veh, GMCL1 /// GMCL1P1 / RFU, AEBP2 / Fold change vs veh, AEBP2 / RFU, SNHG1 /// SNORD22 /// SNORD25 /// SNORD26 /// SNORD27 /// SNORD28 /// SNORD29 /// SNORD31 / Fold change vs veh, SNHG1 /// SNORD22 /// SNORD25 /// SNORD26 /// SNORD27 /// SNORD28 /// SNORD29 /// SNORD31 / Fold change (Aza/veh), C12orf56 (ProbeSet 11735607_a_at) / Fold change (ACY-1035/veh), C12orf56 (ProbeSet 11735607_a_at) / Fold change (Aza/veh), FGFR1OP (ProbeSet 11751329_s_at) / Fold change (ACY-1035/veh), FGFR1OP (ProbeSet 11751329_s_at) / Fold change (Aza/veh), VPS36 (ProbeSet 11739960_a_at) / Fold change (ACY-1035/veh), VPS36 (ProbeSet 11739960_a_at) / RFU SYPL1 (11715823_x_at) / Fold change /veh SYPL1 (11715823_x_at) / RFU IGFBP7 (11715501_s_at) / Fold change /veh IGFBP7 (11715501_s_at) / RFU REEP3 (11722064_at) / Fold change /veh REEP3 (11722064_at) / RFU IGLL1 (11728026_x_at) / Fold change /veh IGLL1 (11728026_x_at): dose or concentration left out as unconfirmed
# Conditions: MV-4-11 cells, 48 hours
smiles,measurement,value
Nc1ncn([C@@H]2O[C@H](CO)[C@@H](O)[C@H]2O)c(=O)n1 [azacitidine],Fold change /veh VCAN (11755009_s_at),1.97
